What was measured:
[1] = test system: NOD ES cells; test: Blastocyst injection (2N) and chimera generation from NOD ES lines; type: in vivo, mouse; conditions: NOD ES line derived and propagated with the inhibitors; 2N injections
Method: Diploid B6D2F2 blastocysts (94-98 h after hCG injection) were placed in a drop of M2 medium under mineral oil. A flat-tip microinjection pipette with an internal diameter of 16 μm was used for cell injection using a Piezo micromanipulator (Primetech, Japan). About 10 cells were injected into the blastoceol cavity. After injection, the embryos were cultured in KSOM medium and placed in a 37° C. humidified CO2 chamber until transferred to recipient females. Ten to fifteen injected blastocysts were transferred to each uterine horn of 2.5 days post coitum pseudo-pregnant B6D2F1 females. For teratoma generation, 2*106 cells were injected subcutaneously into both flanks of recipient SCID mice, and tumors were harvested for sectioning 3-6 weeks after initial injection. […] were collagenased and manually dissociated into small pieces and injected subcutaneously in to immuno deficient mice.

[2] = test system: NOD-iPS cells; test: Dox-independent propagation of Dox-dependent NOD-iPS cells in supplemented mESM; type: cell-based, mouse (NOD); conditions: mESM lacking Dox
Text: FIGS. 4(A)-4(H) illustrate generation of genetically unmodified germline competent NOD ES cells. (A) Experimental outline for derivation of iPS lines that grow in the presence of small molecules and in the absence of Dox. Representative images of NOD iPS lines growing in mESM supplemented with the indicated small molecules or growth factors. (B) Single-cell cloning efficiency of NOD iPS cells in different growth conditions. WT or NOD-iPS cells grown in mESM and KP were sorted in 96 well plates and cultured in mESM supplemented with small molecules. The number of wells containing Nanog+ colonies was counted after 6 days. Efficiencies were normalized to that of C57B6/129F1-iPS cells (“permissive” controls) plated in mESM and defined as 100%. SD for average efficiencies from 2 experiments are shown. Student test P value compares KP/CH to PD/CH mESM conditions for NOD iPS cells. (C) Expansion of day E3.5 ICM derived NOD ES cells in the presence of KP, KP/CH or PD/CH and derivation of stable ES lines. Images of initial colonies observed at passage 2 after embryo dissociation are shown together with representative images at later passages. (D) Karyotype of NOD ES lines. (E) Immunostaining of NOD ES lines for pluripotency markers. Inhibitors used during cell line derivation and propagation are indicated. (F) Chimerism in adult mice generated from the indicated cell lines is evident by the presence of agouti (brown) and albino coat color originating from the NOD background. […] (G) Real-Time PCR analysis for endogenous expressed Oct4, c-Myc and Klf4 genes in NOD iPS and ES cells grown in the indicated conditions. Relative expression levels are normalized to levels detected in control 129 ES cells. (H) Southern analysis indicating correct targeting of the endogenous Nanog locus in NOD ES cells with Nanog-GFP knock-in targeting construct.
Small molecules have been identified to replace some of the reprogramming factors in iPS derivation (Huangfu et al., 2008; Shi et al., 2008). […]

[3] = test system: secondary transgenic MEF line (OSM); conditions: Lyssiotis et al., 2009; cited from earlier work
[4] = test system: 129 EpiSCs; test: Conversion of EpiSCs into ICM-like iPS cells; type: cell-based, mouse; conditions: medium (mESM) supplemented, no transgene
Text: FIGS. 24(A)-24(B) show small molecule conversion of distinct pluripotent states. ([…] derived from the epiblast of day E5.5 mouse embryos or NOD […] ES cells and were reprogrammed into ICM-like after culture in the mESM+KP/CH. While most colonies differentiated due to withdrawal of bFGF and change of medium (indicated by asterisks), ES-like colonies could be observed after 7-9 days and passaged via trypsinization. Within 2 passages ICM-like ES lines could be stably generated. (B) However, NOD […] which was derived from NOD-ES #43 by withdrawing KP/CH and growing the cells in […] conditions for over 8 passages (FIG. 6F), remained dependent on KP/CH molecules. Factors and growth conditions utilized to facilitate the identity conversion at each step are indicated in parenthesis. The pluripotency state was evaluated and defined based on Oct4 enhancer activity, inhibitor sensitivity (indicated in red or blue accordingly for each line). Identical results were obtained by using PD/CH inhibitor combination or KP alone (data not shown). Work described here further analyzed whether the exogenous stimuli defined in this study could interconvert the two distinct pluripotent states. This work first tested whether infection of previously characterized E5.5 derived 129 […] et al., 2007) with a Klf4 or c-Myc Dox inducible vectors could convert the EpiSCs to an ICM-like pluripotent state. […]

SMILES: O=C1Cc2c([nH]c3ccc(Br)cc23)-c2ccccc2N1 [Kenpaullone, 9-bromo-7,12-dihydroindolo[3,2-d][1]benzazepin-6(5H)-one]
- % Chimerism (coat color) [1]: 40-90%
- Born chimeras [1]: 17
- Germline Transmission [1]: yes
- Dox-independent growth of pluripotent NOD-iPS cells [2]: supported Dox-independent growth
- replacement of Klf4 during iPS reprogramming [3]: replaces Klf4 during iPS reprogramming
- conversion of EpiSCs into iPS cells (ICM-like pluripotency) [4]: conversion can be accomplished

From patent US20110088107A1, “COMPOSITIONS AND METHODS FOR DERIVING OR CULTURING PLURIPOTENT CELLS” (priority 2009, published 2011)
